Assay results taken from ChEMBL document CHEMBL1201862, “PubChem BioAssay data set” (2004).
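Each compound was tested at five concentrations against cells in 96-well plates for 48 hours. The concentration for 50% growth inhibition is given as GI50.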 The source made the active and inactive calls. Cut-off read from the data, not from the text of the source: active = GI50 up to about 1.1 µM and inactive = higher.

Experiments:
Test in all cases: NCI anticancer screen, dose series, 48 h
HOP-92 = system: HOP-92
RPMI-8226 = system: RPMI-8226
CAKI-1 = system: CAKI-1
SNB-78 = system: SNB-78
DLD-1 = system: DLD-1
KM-20L2 = system: KM-20L2
SNB-19 = system: SNB-19
TK-10 = system: TK-10
MOLT-4 = system: MOLT-4
SK-MEL-5 = system: SK-MEL-5
HCT-116 = system: HCT-116
NCI-H23 = system: NCI-H23
U-251 = system: U-251
M19-MEL = system: M19-MEL
K562 = system: K562
SF-268 = system: SF-268
UACC-62 = system: UACC-62
ACHN = system: ACHN
OVCAR-3 = system: OVCAR-3
NCI-H226 = system: NCI-H226
OVCAR-8 = system: OVCAR-8
IGROV-1 = system: IGROV-1
LOX IMVI = system: LOX IMVI
HOP-18 = system: HOP-18
M14 = system: M14
COLO 205 = system: COLO 205
SK-MEL-28 = system: SK-MEL-28
SK-OV-3 = system: SK-OV-3
OVCAR-5 = system: OVCAR-5
A549 = system: A549
SN12C = system: SN12C
XF498 = system: XF498
KM12 = system: KM12
HCC 2998 = system: HCC 2998
NCI-H460 = system: NCI-H460
HT-29 = system: HT-29
DMS-114 = system: DMS-114
HL-60 = system: HL-60
LXFL 529 = system: LXFL 529
RXF 631 = system: RXF 631
Malme-3M = system: Malme-3M
CCRF-CEM = system: CCRF-CEM
EKVX = system: EKVX
UACC-257 = system: UACC-257
UO-31 = system: UO-31
SW-620 = system: SW-620
SF-295 = system: SF-295
SNB-75 = system: SNB-75
HOP-62 = system: HOP-62
SK-MEL-2 = system: SK-MEL-2
786-0 = system: 786-0
HCT-15 = system: HCT-15
NCI-H522 = system: NCI-H522
SR = system: SR
A498 = system: A498
SF-539 = system: SF-539
RXF 393 = system: RXF 393
OVCAR-4 = system: OVCAR-4
DMS-273 = system: DMS-273

Structure (SMILES): Cc1ccc(C2=[N+]([O-])c3ccccc3C2=O)cc1
- GI50 (HOP-92): 9.23 µM (inactive)
- GI50 (RPMI-8226): 29.4 µM (inactive)
- GI50 (CAKI-1): > 100 µM (inactive)
- GI50 (SNB-78): 31.7 µM (inactive)
- GI50 (DLD-1): 21.9 µM (inactive)
- GI50 (KM-20L2): 40.4 µM (inactive)
- GI50 (SNB-19): 31.9 µM (inactive)
- GI50 (TK-10): > 31.6 µM (inactive)
- GI50 (MOLT-4): 24.7 µM (inactive)
- GI50 (SK-MEL-5): 13.6 µM (inactive)
- GI50 (HCT-116): 23.6 µM (inactive)
- GI50 (NCI-H23): 19.2 µM (inactive)
- GI50 (U-251): 19 µM (inactive)
- GI50 (M19-MEL): > 36.1 µM (inactive)
- GI50 (K562): 16.1 µM (inactive)
- GI50 (SF-268): 35.1 µM (inactive)
- GI50 (UACC-62): 17.5 µM (inactive)
- GI50 (ACHN): 16 µM (inactive)
- GI50 (OVCAR-3): 16.6 µM (inactive)
- GI50 (NCI-H226): 46.7 µM (inactive)
- GI50 (OVCAR-8): 17.3 µM (inactive)
- GI50 (IGROV-1): 15.7 µM (inactive)
- GI50 (LOX IMVI): 16.8 µM (inactive)
- GI50 (HOP-18): 27.4 µM (inactive)
- GI50 (M14): 21.7 µM (inactive)
- GI50 (COLO 205): 28.9 µM (inactive)
- GI50 (SK-MEL-28): 15.8 µM (inactive)
- GI50 (SK-OV-3): > 100 µM (inactive)
- GI50 (OVCAR-5): 52.6 µM (inactive)
- GI50 (A549): 46.7 µM (inactive)
- GI50 (SN12C): 19.7 µM (inactive)
- GI50 (XF498): 12.9 µM (inactive)
- GI50 (KM12): 17 µM (inactive)
- GI50 (HCC 2998): > 51.3 µM (inactive)
- GI50 (NCI-H460): 36.3 µM (inactive)
- GI50 (HT-29): 26.3 µM (inactive)
- GI50 (DMS-114): 14.5 µM (inactive)
- GI50 (HL-60): 7.98 µM (inactive)
- GI50 (LXFL 529): 8.49 µM (inactive)
- GI50 (RXF 631): 22.2 µM (inactive)
- GI50 (Malme-3M): 22.9 µM (inactive)
- GI50 (CCRF-CEM): 11.9 µM (inactive)
- GI50 (EKVX): 24.7 µM (inactive)
- GI50 (UACC-257): 16.5 µM (inactive)
- GI50 (UO-31): > 56.1 µM (inactive)
- GI50 (SW-620): 36.4 µM (inactive)
- GI50 (SF-295): 28.8 µM (inactive)
- GI50 (SNB-75): 44.4 µM (inactive)
- GI50 (HOP-62): > 100 µM (inactive)
- GI50 (SK-MEL-2): > 46.8 µM (inactive)
- GI50 (786-0): 24 µM (inactive)
- GI50 (HCT-15): 16.5 µM
- GI50 (NCI-H522): 15.8 µM (inactive)
- GI50 (SR): 36.1 µM (inactive)
- GI50 (A498): > 100 µM (inactive)
- GI50 (SF-539): 30.9 µM (inactive)
- GI50 (RXF 393): 17.7 µM (inactive)

Structure (SMILES): CC(=O)c1cccc(NC(=O)C(=O)C(C(=O)NN)c2ccccc2)c1 (configuration not stated)
- GI50 (HOP-92): > 100 µM (inactive)
- GI50 (RPMI-8226): > 100 µM (inactive)
- GI50 (CAKI-1): > 100 µM (inactive)
- GI50 (DLD-1): > 100 µM (inactive)
- GI50 (KM-20L2): > 100 µM (inactive)
- GI50 (SNB-19): > 100 µM (inactive)
- GI50 (TK-10): > 100 µM (inactive)
- GI50 (MOLT-4): > 100 µM (inactive)
- GI50 (SK-MEL-5): > 100 µM (inactive)
- GI50 (HCT-116): > 100 µM (inactive)
- GI50 (NCI-H23): > 100 µM (inactive)
- GI50 (U-251): > 100 µM (inactive)
- GI50 (M19-MEL): > 100 µM (inactive)
- GI50 (K562): > 100 µM (inactive)
- GI50 (SF-268): > 100 µM (inactive)
- GI50 (UACC-62): > 100 µM (inactive)
- GI50 (ACHN): > 100 µM (inactive)
- GI50 (OVCAR-3): > 100 µM (inactive)
- GI50 (NCI-H226): > 100 µM (inactive)
- GI50 (OVCAR-4): > 100 µM (inactive)
- GI50 (OVCAR-8): > 100 µM (inactive)
- GI50 (IGROV-1): > 100 µM (inactive)
- GI50 (LOX IMVI): > 100 µM (inactive)
- GI50 (HOP-18): 16.5 µM (inactive)
- GI50 (DMS-273): > 100 µM (inactive)
- GI50 (M14): > 100 µM (inactive)
- GI50 (COLO 205): > 100 µM (inactive)
- GI50 (SK-MEL-28): > 100 µM (inactive)
- GI50 (SK-OV-3): > 100 µM (inactive)
- GI50 (OVCAR-5): > 100 µM (inactive)
- GI50 (A549): > 100 µM (inactive)
- GI50 (SN12C): > 100 µM (inactive)
- GI50 (XF498): > 100 µM (inactive)
- GI50 (KM12): > 100 µM (inactive)
- GI50 (HCC 2998): 51.6 µM (inactive)
- GI50 (NCI-H460): > 100 µM (inactive)
- GI50 (HT-29): > 100 µM (inactive)
- GI50 (DMS-114): > 100 µM (inactive)
- GI50 (LXFL 529): > 100 µM (inactive)
- GI50 (RXF 631): > 100 µM (inactive)
- GI50 (Malme-3M): > 100 µM (inactive)
- GI50 (CCRF-CEM): > 100 µM (inactive)
- GI50 (EKVX): > 100 µM (inactive)
- GI50 (UACC-257): > 100 µM (inactive)
- GI50 (UO-31): > 100 µM (inactive)
- GI50 (SW-620): > 100 µM (inactive)
- GI50 (SNB-75): > 100 µM (inactive)
- GI50 (HOP-62): > 100 µM (inactive)
- GI50 (SK-MEL-2): > 100 µM (inactive)
- GI50 (786-0): > 100 µM (inactive)
- GI50 (HCT-15): > 100 µM
- GI50 (NCI-H522): > 100 µM (inactive)
- GI50 (A498): > 100 µM (inactive)
- GI50 (SF-539): > 100 µM (inactive)
- GI50 (RXF 393): > 100 µM (inactive)
